Measurements taken from US10975016B2, “Solvent compounds for use as glycol ether replacements” (TBF ENVIRONMENTAL TECHNOLOGY INC., priority 2017, dated 2021).

Assays:
[1] = XBC vs Dipropylene Glycol Methyl Ether (DPM) in acrylic modified epoxy ester based paint: physical and coating properties; conditions: for Specific Gravity: acrylic modified epoxy ester (Epotuf 38-698) based paint; for VOC (Without Water) / Viscosity / Volume Solid % / Weight Solid %: acrylic modified epoxy ester based paint
Experimental: The properties of XBC4, in comparison to dipropylene glycol methyl ether (DPM), in an acrylic-modified epoxy ester-based paint were determined to be as follows: […]

[2] = Physical/chemical properties of XBC4 (GlykoSol)
[3] = VOC (calculated) of water-based paint formulas; type: physicochemical; conditions: water-based paints, substituted for propylene glycol
Experimental: Bis(2-ButoxyEthyl Carbonate) was tested in a number of water-based flat paints, as follows. Water was added to a container and the additives were added. The container was placed under a high speed disperser and mixed under slow speed. Natrosol™ hydroxyethylcellulose was added slowly and allowed to mix for 10 minutes increasing speed as needed. The pigments were then added, slowly increasing speed and water as needed. After the pigments were added, the speed was increased to about 2800 rpms. After 10 to 15 minutes the speed was reduced to about 1000 rpms. The latex was added slowly into the vortex. The rest of the water and other additives (depending on the formulation) were then added and allowed to mix for 5 minutes.
In some tests, bis(2-ButoxyEthyl Carbonate) was substituted for propylene glycol to evaluate its effectiveness in replacing propylene glycol to create a lower VOC and lower toxicity material.

Compound: COC(C)COC(C)CO (stereo not drawn) [DPM, dipropylene glycol methyl ether, reference compound]
- Specific Gravity [1]: 1.23 g/cm3
- VOC (Without Water) [1]: 110 g/L
- Viscosity [1]: 90 KU
- Volume Solid % [1]: 35.5%
- Weight Solid % [1]: 46.9%

Compound: CCCCOCCOC(=O)OCCOCCCC [XBC4, bis(2-ButoxyEthyl Carbonate)]
- Auto Ignition Temp [2]: 305 (581° F.) ° C.
- Boiling Point [2]: 297 (566.6° F.) ° C.
- Butyl Cellosolve Solubility [2]: Soluble
- Clarity [2]: Clear
- Colour (Alpha, max) [2]: 10 (Clear)
- Flashpoint [2]: 146.1 (295° F.) ° C.
- Odor [2]: No Odor
- Partial Coefficient (Range) [2]: 1.9-3.0
- Volatility (%) [2]: 100%
- Water Solubility [2]: Not Soluble
- Specific Gravity ([2]; @15.5° C.): 0.985
- Density ([2]; @ 20° C.): 0.980 (8.22 lbs/gal) g/mL
- Solubility in H2O ([2]; @ 25° C.): Partially Soluble
- Vapour Pressure ([2]; @ 25° C.): 0.008 mm Hg
- Viscosity ([2]; @ 25° C.): 0.60 cP
- VOC ([2]; ASTM 313-91): 0 g/L
- Vapour Density (Air = 1) ([2]; Air = 1): 0.95
- TGA Weight Loss ([2]; Range 115-240°): 99.47%
- Evaporation Rate (n-Butyl Acetate = 1) ([2]; n-Butyl Acetate = 1): 0.01
- VOC of paint after replacement of propylene glycol [3]: far lower or zero (0) VOC materials
- Specific Gravity [1]: 1.23 g/cm3
- VOC (Without Water) [1]: 34 g/L
- Viscosity [1]: 90 KU
- Volume Solid % [1]: 35.5%
- Weight Solid % [1]: 46.9%
